In one test the target is CDK7/CycH/MNAT1 (Homo sapiens (Human), UniProt P50613). The experiment in a line: Biochemical assay for CDK7 (TR-FRET kinase assay). The conditions noted are these: 60 min pre-incubation, 1 mM ATP; for inhibition at 10 µM: 10 μM compound, read-out: % inhibition @ 10 μM; for pIC50: read-out: IC50. A digest of the protocol:
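CDK7/CycH/MNAT1 (5 nM) was preincubated with compound for 60 min at room temperature, then reacted for 60 min with 100 nM ULight-MBP and 1 mM ATP in 1% DMSO. Irreversibility was probed with 20, 60 and 180 min preincubations.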

Test [1] relates to RNA polymerase II CTD phosphorylation (MDA-MB-231/NCI-H358 cells). The experiment in a line: Inhibition of RNA polymerase II CTD phosphorylation in cell western assay. The test is classed as cell-based. Particulars: 4 hours incubation, phospho RNA Pol II Ser-5 or Ser-2. The protocol:
25000 cells (MDA-MB-231/NCI-H358) were seeded in 96 well black clear bottom plate incubated for overnight before addition of selected compound. 3 fold dilutions of selected compound diluted in DMSO starting from 10 μM, added to cells and incubated for 4 hours at 37° C., 5% CO2 incubator. Cells were washed once with 100 μl of phosphate buffered saline (sigma #P3813), then fixed with 100 μl/well of 4% Para formaldehyde for 60 min at room temperature, in dark. The cells were washed 3 times with 100 μl of wash buffer (PBS with 0.1% Triton-X-100), later blocked for 2 hours at room temperature in blocking buffer (5% BSA in PBST). Cells were stained overnight at 4° C. with Phospho RNA Pol II (S5) (Millipore #04-1572, Abcam #5131) or Phospho RNA Pol II (Ser-2), antibody (Bethyl labs #A300-654-A) in blocking buffer. Post incubation cells were washed with Delifia wash buffer (Perkin Elmer #4010-0010). Cells were treated with LANCE secondary antibodies (LANCE® Eu-W1024 perkin elmer #AD-0076 for phospho Ser-5 CTD RNA pol-II and Delfia Eu-N1 anti rabbit IgG Perkin elmer #AD0106 for phospho Ser-2 CTD RNA pol-II) for 2 hours in assay buffer (Perkin Elmer #1244-111), Cells were washed 3 times with Delfia wash buffer post incubation, Enhancement solution (Perkin Elmer #1244-105) added and incubated for 20 mins. Europium readings were taken in Victor-3 instrument. Cell normalization was done using Hoechst dye (0.5 μg/ml).
Selected compounds were screened in the above mentioned assay procedure. The EC50 values are summarised in the below table; wherein group “A” refers to an EC50 value of less than or equal to 1 μM, group “B” refers to EC50 value in range of 1 to 10 μM and group “C” refers to EC50 value of greater than 10 μM.

pEC50, pIC50: −log10 of the molar value.

These results are taken from patent US11186576B2, “Pyrazolo[1,5-A][1,3,5]triazine and pyrazolo[1,5-A]pyrimidine derivatives as CDK inhibitors” (Aurigene Discovery Technologies Limited, priority 2015, dated 2021).

CDK7/CycH/MNAT1, sequence (P50613 whole entry): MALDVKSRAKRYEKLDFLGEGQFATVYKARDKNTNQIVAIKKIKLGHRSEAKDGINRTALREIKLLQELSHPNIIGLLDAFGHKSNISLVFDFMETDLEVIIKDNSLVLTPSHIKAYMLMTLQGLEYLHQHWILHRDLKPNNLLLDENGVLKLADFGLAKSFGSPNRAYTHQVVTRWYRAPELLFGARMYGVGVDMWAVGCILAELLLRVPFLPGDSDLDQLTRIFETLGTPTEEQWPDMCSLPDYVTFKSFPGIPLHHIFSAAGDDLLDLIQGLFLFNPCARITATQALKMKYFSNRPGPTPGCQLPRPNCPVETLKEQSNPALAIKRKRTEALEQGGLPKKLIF
CDK7/CycH/MNAT1, sequence (P51946 whole entry partner): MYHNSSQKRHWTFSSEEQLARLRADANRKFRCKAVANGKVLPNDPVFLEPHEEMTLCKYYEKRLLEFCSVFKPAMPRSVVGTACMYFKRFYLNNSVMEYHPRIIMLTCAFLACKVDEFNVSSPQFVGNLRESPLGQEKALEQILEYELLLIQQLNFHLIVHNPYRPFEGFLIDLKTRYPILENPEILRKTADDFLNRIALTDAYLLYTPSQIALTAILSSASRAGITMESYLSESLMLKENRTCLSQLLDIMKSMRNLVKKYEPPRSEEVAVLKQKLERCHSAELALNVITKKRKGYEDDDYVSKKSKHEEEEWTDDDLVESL
CDK7/CycH/MNAT1, sequence (P51948 whole entry partner): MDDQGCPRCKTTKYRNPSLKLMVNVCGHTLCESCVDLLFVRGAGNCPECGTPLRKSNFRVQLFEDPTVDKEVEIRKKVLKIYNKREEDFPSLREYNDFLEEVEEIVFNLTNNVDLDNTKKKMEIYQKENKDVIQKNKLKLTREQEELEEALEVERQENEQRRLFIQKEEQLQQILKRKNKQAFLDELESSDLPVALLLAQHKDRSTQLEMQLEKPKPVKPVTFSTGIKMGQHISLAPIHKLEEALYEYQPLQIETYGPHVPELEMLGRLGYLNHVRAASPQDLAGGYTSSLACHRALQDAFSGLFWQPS

A word on the inhibition: it is the change of the read-out against control, counted positive when it falls. As a reminder, the pIC50 is −log10 of the IC50, conventionally taken in molar units. A word on the pEC50: it is the EC50 on a negative log10 scale, so that one unit is a factor of ten. The low end stands for a large EC50, the high end for a small EC50. In the case of `C=CC(=O)N1CCC(C(=O)Nc2cccc(CNc3nc(N[C@@H]4CCNC[C@H]4F)nc4c(C(C)C)cnn34)c2)C1` (stereo partly drawn) [Compound 14, 1-acryloyl-N-(3-(((2-(((3R,4R)-3-fluoropiperidin-4-yl)amino)-8-isopropylpyrazolo[1,5-a][1,3,5]triazin-4-yl)amino)methyl)phenyl)pyrrolidine-3-carboxamide], on CDK7/CycH/MNAT1, the inhibition at 10 µM stood at 97% and the pIC50 is > 6.52. In test [1], this compound gave a pEC50 of 5.00 to 6.00.

On to `C=CC(=O)N1CCC(C(=O)Nc2cccc(CNc3nc(NC4CCCC(N)C4)nc4c(C(C)C)cnn34)c2)C1` (stereo not drawn) [Compound 15, 1-acryloyl-N-(3-(((2-((3-aminocyclohexyl)amino)-8-isopropylpyrazolo[1,5-a][1,3,5]triazin-4-yl)amino)methyl)phenyl)pyrrolidine-3-carboxamide], for which, at CDK7/CycH/MNAT1, the inhibition at 10 µM stood at 98% and the pIC50 is > 6.52. For the same compound, the pEC50 in test [1] was < 5.00.

Turning to `C=CC(=O)N1CC(C(=O)Nc2cccc(CNc3nc(NC4CCOCC4)nc4c(C(C)C)cnn34)c2)C1` [Compound 18, 1-acryloyl-N-(3-(((8-isopropyl-2-((tetrahydro-2H-pyran-4-yl)amino)pyrazolo[1,5-a][1,3,5]triazin-4-yl)amino)methyl)phenyl)azetidine-3-carboxamide], at CDK7/CycH/MNAT1, the inhibition at 10 µM amounted to 101% and the pIC50 is > 6.52. The pEC50 in test [1] is ≥ 6.00.

Take `C=CC(=O)N1CC[C@H]1C(=O)Nc1cccc(CNc2nc(NC3CCOCC3)nc3c(C(C)C)cnn23)c1` [Compound 20, (S)-1-acryloyl-N-(3-(((8-isopropyl-2-((tetrahydro-2H-pyran-4-yl)amino)pyrazolo[1,5-a][1,3,5]triazin-4-yl)amino)methyl)phenyl)azetidine-2-carboxamide]: at CDK7/CycH/MNAT1, the inhibition at 10 µM is 100% and the pIC50 is > 6.52. Also, the pEC50 in test [1] is ≥ 6.00.

As for `C=CC(=O)N1CCCCC1C(=O)Nc1cccc(CNc2nc(NC3CCOCC3)nc3c(C(C)C)cnn23)c1` (stereo not drawn) [Compound 21, 1-acryloyl-N-(3-(((8-isopropyl-2-((tetrahydro-2H-pyran-4-yl)amino)pyrazolo[1,5-a][1,3,5]triazin-4-yl)amino)methyl)phenyl)piperidine-2-carboxamide], at CDK7/CycH/MNAT1, the inhibition at 10 µM was found to be 96% and the pIC50 is > 6.52. In addition, the negative logarithm of the EC50 (pEC50) in test [1] is ≥ 6.00.

For `C=CC(=O)N1CCOCC1C(=O)Nc1cccc(CNc2nc(NC3CCOCC3)nc3c(C(C)C)cnn23)c1` (stereo not drawn) [Compound 24, 4-acryloyl-N-(3-(((8-isopropyl-2-((tetrahydro-2H-pyran-4-yl)amino)pyrazolo[1,5-a][1,3,5]triazin-4-yl)amino)methyl)phenyl)morpholine-3-carboxamide], on CDK7/CycH/MNAT1, the inhibition at 10 µM worked out at 98% and the pIC50 was > 6.52. For the same compound, in test [1], the pEC50 is ≥ 6.00.

For the compound `C=CC(=O)N1CCC(C(=O)Nc2ccc(F)c(CNc3nc(NC4CCOCC4)nc4c(C(C)C)cnn34)c2)C1` (stereo not drawn) [Compound 32, 1-acryloyl-N-(4-fluoro-3-(((8-isopropyl-2-((tetrahydro-2H-pyran-4-yl)amino)pyrazolo[1,5-a][1,3,5]triazin-4-yl)amino)methyl)phenyl)pyrrolidine-3-carboxamide], at CDK7/CycH/MNAT1, the inhibition at 10 µM was 91% and the pIC50 was > 6.52. Besides, in test [1], the pEC50 is 5.00 to 6.00.

On to `C=CC(=O)N[C@H]1CC[C@@H](C(=O)Nc2cccc(CNc3nc(NC4CCOCC4)nc4c(C(C)C)cnn34)c2F)CC1` [Compound 38, (1,4-cis)-4-acrylamido-N-(2-fluoro-3-(((8-isopropyl-2-((tetrahydro-2H-pyran-4-yl)amino)pyrazolo[1,5-a][1,3,5]triazin-4-yl)amino)methyl)phenyl)cyclohexane-1-carboxamide], for which, at CDK7/CycH/MNAT1, the inhibition at 10 µM was 95% and the pIC50 is > 6.52. The compound also had a pEC50 in test [1] of 5.00 to 6.00.

For the compound `CC(C)c1cnn2c(NCc3cccc(NC(=O)C4CCN(C(=O)/C=C/CN(C)C)C4)c3)nc(NC3CCOCC3)nc12` (stereo not drawn) [Compound 69, (E)-1-(4-(dimethylamino)but-2-enoyl)-N-(3-(((8-isopropyl-2-((tetrahydro-2H-pyran-4-yl)amino)pyrazolo[1,5-a][1,3,5]triazin-4-yl)amino)methyl)phenyl)pyrrolidine-3-carboxamide], at CDK7/CycH/MNAT1, the inhibition at 10 µM turned out to be 98% and the pIC50 is > 6.52. Further, the pEC50 in test [1] was 5.00 to 6.00.

Turning to `C=CS(=O)(=O)N1CCCCC1C(=O)Nc1cccc(CNc2nc(NC3CCOCC3)nc3c(C(C)C)cnn23)c1` (stereo not drawn) [Compound 78, N-(3-(((8-isopropyl-2-((tetrahydro-2H-pyran-4-yl)amino)pyrazolo [1,5-a][1,3,5]triazin-4-yl)amino)methyl)phenyl)-1-(vinylsulfonyl)piperidine-2-carboxamide], at CDK7/CycH/MNAT1, the inhibition at 10 µM turned out to be 100% and the pIC50 is > 6.52. Also, the pEC50 in test [1] was ≥ 6.00.

Turning to `C=CC(=O)NC1(C(=O)Nc2cccc(CNc3nc(NC4CCOCC4)nc4c(C(C)C)cnn34)c2)CC1` [Compound 83, 1-acrylamido-N-(3-(((8-isopropyl-2-((tetrahydro-2H-pyran-4-yl)amino)pyrazolo[1,5-a][1,3,5]triazin-4-yl)amino)methyl)phenyl)cyclopropane-1-carboxamide], on CDK7/CycH/MNAT1, the inhibition at 10 µM came out at 96% and the pIC50 was > 6.52. In test [1], the pEC50 is ≥ 6.00.

As for `C=CC(=O)Nc1cn(C)nc1C(=O)Nc1cccc(CNc2nc(NC3CCOCC3)nc3c(C(C)C)cnn23)c1` [Compound 85, 4-acrylamido-N-(3-(((8-isopropyl-2-((tetrahydro-2H-pyran-4-yl)amino)pyrazolo[1,5-a][1,3,5]triazin-4-yl)amino)methyl)phenyl)-1-methyl-1H-pyrazole-3-carboxamide], at CDK7/CycH/MNAT1, the inhibition at 10 µM was 99% and the pIC50 is > 6.52. The compound further showed a pEC50 in test [1] of 5.00 to 6.00.

Turning to `C=CC(=O)N1CCC(C(=O)Nc2cccc(CNc3nc(OC4CCN(C)CC4)nc4c(CC)cnn34)c2)CC1` [Compound 88, 1-acryloyl-N-(3-(((8-ethyl-2-((1-methylpiperidin-4-yl)oxy)pyrazolo [1,5-a][1,3,5]triazin-4-yl)amino)methyl)phenyl)piperidine-4-carboxamide], at CDK7/CycH/MNAT1, the inhibition at 10 µM came to 97% and the pIC50 was > 6.52. Moreover, the pEC50 in test [1] was 5.00 to 6.00.

`C=CC(=O)N[C@H]1CC[C@@H](C(=O)Nc2cccc(CNc3nc(OC4CCN(C)CC4)nc4c(CC)cnn34)c2)CC1` [Compound 90, (1,4-cis)-4-acrylamido-N-(3-(((8-ethyl-2-((1-methylpiperidin-4-yl)oxy)pyrazolo[1,5-a][1,3,5]triazin-4-yl)amino)methyl)phenyl)cyclohexane-1-carboxamide]: at CDK7/CycH/MNAT1, the inhibition at 10 µM turned out to be 95% and the pIC50 was > 6.52. The pEC50 in test [1] is 5.00 to 6.00.

As for `C=CC(=O)N[C@H]1CC[C@H](C(=O)Nc2cccc(CNc3nc(OC4CCN(C)CC4)nc4c(C(C)C)cnn34)c2)CC1` [Compound 91, (1,4-trans)-4-acrylamido-N-(3-(((8-isoproprayl-2-((1-methylpiperidin-4-yl)oxy)pyrazolo[1,5-a][1,3,5]triazin-4-yl)amino)methyl)phenyl)cyclohexane-1-carboxamide], at CDK7/CycH/MNAT1, the inhibition at 10 µM was determined as 94% and the pIC50 is > 6.52. Further, the pEC50 in test [1] is < 5.00.

Take `C=CC(=O)N1CCC1C(=O)Nc1cccc(CNc2nc(OC3CCN(C)CC3)nc3c(C(C)C)cnn23)c1` (stereo not drawn) [Compound 94, 1-acryloyl-N-(3-(((8-isopropyl-2-((1-methylpiperidin-4-yl)oxy)pyrazolo[1,5-a][1,3,5]triazin-4-yl)amino)methyl)phenyl)azetidine-2-carboxamide]: at CDK7/CycH/MNAT1, the inhibition at 10 µM was 99% and the pIC50 is > 6.52. Moreover, in test [1], the pEC50 was ≥ 6.00.

For the compound `C=CC(=O)N1CCC(C(=O)Nc2cccc(CNc3nc(OC4CCOCC4)nc4c(C(C)C)cnn34)c2)C1` (stereo not drawn) [Compound 95, 1-acryloyl-N-(3-(((8-isopropyl-2-((tetrahydro-2H-pyran-4-yl)oxy)pyrazolo[1,5-a][1,3,5]triazin-4-yl)amino)methyl)phenyl)pyrrolidine-3-carboxamide], at CDK7/CycH/MNAT1, the inhibition at 10 µM was found to be 93% and the pIC50 is > 6.52. In test [1], the pEC50 was ≥ 6.00.

Turning to `C=CC(=O)N1CCCC(C(=O)Nc2cccc(CNc3nc(OC4CCOCC4)nc4c(C(C)C)cnn34)c2)C1` (stereo not drawn) [Compound 96, 1-acryloyl-N-(3-(((8-isopropyl-2-((tetrahydro-2H-pyran-4-yl)oxy)pyrazolo[1,5-a][1,3,5]triazin-4-yl)amino)methyl)phenyl)piperidine-3-carboxamide], on CDK7/CycH/MNAT1, the inhibition at 10 µM turned out to be 87% and the pIC50 was 6.00 to 6.52. Further, the pEC50 in test [1] was 5.00 to 6.00.
